Data published in patent publication US11339120B2, “Phenyl derivatives as cannabinoid receptor 2 agonists” (priority 2015, dated 2022).
Read-outs that look alike come from different tables or passages of the source.

Experiments:
human CB1 receptors = molecular target: T1, human CB1 receptors (Homo sapiens, UniProt P21554); test: functional cAMP assay, CHO cells expressing human CB1; format: cell-based
T1 construct: expressed in transfected cells; host or cells: CHO cells
Experimental: (§1) CHO cells expressing human CB1 or CB2 receptors are seeded 17-24 hours prior to the experiment 50.000 cells per well in a black 96 well plate with flat clear bottom (Corning Costar #3904) in DMEM (Invitrogen No. 31331), 1×HT supplement, with 10% fetal calf serum and incubated at 5% CO2 and 37° C. in a humidified incubator. The growth medium was exchanged with Krebs Ringer Bicarbonate buffer with 1 mM IBMX and incubated at 30° C. for 30 min. Compounds were added to a final assay volume of 100 μl and incubated for 30 min at 30° C. Using the cAMP-Nano-TRF detection kit the assay (Roche Diagnostics) was stopped by the addition of 50 μl lysis reagent (Tris, NaCl, 1.5% Triton X100, 2.5% NP40, 10% NaN3) and 50 μl detection solutions (20 μM mAb Alexa700-cAMP 1:1, and 48 μM Ruthenium-2-AHA-cAMP) and shaken for 2 h at room temperature. The time-resolved energy transfer is measured by a TRF reader (Evotec Technologies GmbH), equipped with a ND:YAG laser as excitation source. The plate is measured twice with the excitation at 355 nm and at the emission with a delay of 100 ns and a gate of 100 ns, total exposure time 10 s at 730 (bandwidth 30 nm) or 645 nm (bandwidth 75 nm), respectively. The FRET signal is calculated as follows: FRET=T730-Alexa730-P(T645-B645) with P=Ru730-B730/Ru645-B645, where T730 is the test well measured at 730 nM, T645 is the test well measured at 645 nm, B730 and B645 are the buffer controls at 730 nm and 645 nm, respectively. cAMP content is determined from the function of a standard curve spanning from 10 μM to 0.13 nM cAMP.
(§2) EC50 values were determined using Activity Base analysis (ID Business Solution, Limited). The EC50 values for a wide range of cannabinoid agonists generated from this assay were in agreement with the values published in the scientific literature.

human CB2 receptors = molecular target: T2, human CB2 receptors (Homo sapiens, UniProt P34972); test: functional cAMP assay, CHO cells expressing human CB2; format: cell-based
T2 construct: expressed in transfected cells; host or cells: CHO cells
T2 sequence (P34972 whole entry): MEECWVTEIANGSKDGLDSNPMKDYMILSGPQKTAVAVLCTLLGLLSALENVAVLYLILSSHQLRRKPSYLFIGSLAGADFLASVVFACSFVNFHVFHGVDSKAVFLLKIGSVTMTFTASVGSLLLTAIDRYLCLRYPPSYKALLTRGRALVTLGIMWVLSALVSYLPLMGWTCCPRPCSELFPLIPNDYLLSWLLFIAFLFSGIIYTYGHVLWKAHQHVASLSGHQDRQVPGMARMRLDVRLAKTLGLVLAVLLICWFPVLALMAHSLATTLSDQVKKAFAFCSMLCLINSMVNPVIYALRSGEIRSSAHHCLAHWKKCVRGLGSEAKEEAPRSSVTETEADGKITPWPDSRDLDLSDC
Experimental: as §1, §2

T1 sequence (P21554 whole entry): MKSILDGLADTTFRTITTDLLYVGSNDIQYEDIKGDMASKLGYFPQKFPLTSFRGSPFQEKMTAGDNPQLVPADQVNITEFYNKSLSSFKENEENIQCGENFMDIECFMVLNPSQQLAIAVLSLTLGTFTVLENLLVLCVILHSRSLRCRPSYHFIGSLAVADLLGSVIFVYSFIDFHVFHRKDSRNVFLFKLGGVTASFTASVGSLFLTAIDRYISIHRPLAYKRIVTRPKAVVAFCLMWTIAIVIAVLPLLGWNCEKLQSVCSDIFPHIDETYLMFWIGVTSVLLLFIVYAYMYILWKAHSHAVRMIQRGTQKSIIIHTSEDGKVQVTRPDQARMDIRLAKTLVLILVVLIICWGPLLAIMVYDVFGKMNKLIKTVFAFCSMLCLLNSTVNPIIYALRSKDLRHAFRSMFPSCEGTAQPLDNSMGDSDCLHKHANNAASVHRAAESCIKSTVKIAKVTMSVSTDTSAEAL

| Structure (SMILES) | EC50 (human CB1 receptors) [nM] | EC50 (human CB2 receptors) [nM] | EC50 (human CB2 receptors; functional cAMP assay, CHO cells expressing human CB2, read-out: Human CB2 EC50) [nM] |
| --- | --- | --- | --- |
| Cc1nc([C@](C)(CC2CC2)NC(=O)c2ccc(C3CC3)c(OCC(F)F)c2)no1 [Example 32, (+)-4-Cyclopropyl-N-[1-cyclopropyl-2-(5-methyl-1,2,4-oxadiazol-3-yl)propan-2-yl]-3-(2,2-difluoroethoxy)benzamide] | > 10000 | 10.1 |  |
| Cc1nc([C@@](C)(CC2CC2)NC(=O)c2ccc(C3CC3)c(OCC(F)(F)F)c2)no1 [Example 25, (−)-4-Cyclopropyl-N-[1-cyclopropyl-2-(5-methyl-1,2,4-oxadiazol-3-yl)propan-2-yl]-3-(2,2,2-trifluoroethoxy)benzamide] | > 10000 | 40.3 |  |
| CNC(=O)[C@@H](NC(=O)c1ccc(C2CC2)c(OC(C)C)c1)C(C)(C)C [Example 37, 4-Cyclopropyl-N-[(2S)-3,3-dimethyl-1-(methylamino)-1-oxobutan-2-yl]-3-[(propan-2-yl)oxy]benzamide] | > 10000 | 5.33 |  |
| CCC(CC)(NC(=O)c1ccc(C2CC2)c(OCC2CC2)c1)C(=O)N1CC(F)(F)C1 [Example 9, 4-Cyclopropyl-3-(cyclopropylmethoxy)-N-[3-(3,3-difluoroazetidine-1-carbonyl)pentan-3-yl]benzamide] | > 10000 | 7.56 |  |
| CNC(=O)[C@@H](NC(=O)c1ccc(C2CC2)c(OCCF)c1)C(C)(C)C [Example 39, 4-Cyclopropyl-N-[(2S)-3,3-dimethyl-1-(methylamino)-1-oxobutan-2-yl]-3-(2-fluoroethoxy)benzamide] | 1560 | 11.5 |  |
| C[C@](CC(N)=O)(NC(=O)c1ccc(C2CC2)c(OCC(F)(F)F)c1)C1CC1 [Example 36, (+)-N-[4-amino-2-cyclopropyl-4-oxobutan-2-yl]-4-cyclopropyl-3-(2,2,2-trifluoroethoxy)benzamide] | > 10000 | 33.9 |  |
| Cc1nc(C(NC(=O)c2ccc(C3CC3)c(OCC(F)(F)F)c2)C2(C)COC2)no1 (stereo not drawn) [Example 67, 4-Cyclopropyl-N-[(5-methyl-1,2,4-oxadiazol-3-yl)(3-methyloxetan-3-yl)methyl]-3-(2,2,2-trifluoroethoxy)benzamide] | > 10000 |  | 263 |
| CNC(=O)[C@@H](NC(=O)c1ccc(C2CC2)c(-c2ccc(F)nc2)c1)C(C)(C)C [Example 58, 4-Cyclopropyl-N-[(2S)-3,3-dimethyl-1-(methylamino)-1-oxobutan-2-yl]-3-(6-fluoropyridin-3-yl)benzamide] | 388 | 11.8 |  |
| CC(C)(C)c1noc(-c2ccc(C3CC3)c(OCC3CC3)c2)n1 [Example 14, 3-tert-Butyl-5-[4-cyclopropyl-3-(cyclopropylmethoxy)phenyl]-1,2,4-oxadiazole] | > 10000 | 23.3 |  |
